# Entries after “also recorded” stand apart in the source; their conditions may differ.
# Assays:
# [1] = system: phosphorylation of HER1-3, RAS/RAF/MEK/MAPK, p70S6K, S6 ribosomal, 4EBP1, Cdc-2 and retinoblastoma; test: Western blot analysis of tumour lysates from HCC29-0909A xenograft (pharmacodynamics); type: in vivo, SCID mice; conditions: Western blot of tumour lysates after two and fourteen days of treatment
# MAPK pathway = test: Pharmacodynamics in HCC01-0708 PDX model; type: in vivo; conditions: after twelve days of treatment
# HCC cell lines = test: Early apoptosis in HCC cell lines (Muse Annexin V & Dead Cell Assay); type: cell-based; conditions: all HCC cell lines tested; 48 hours of incubation
# Method: (§1) An in vitro experiment was conducted to investigate whether varlitinib induced apoptosis in HCC cell lines. HCC cells were grown in cell culture medium with 10% FBS and with varying concentrations of varlitinib. Apoptosis profiles were analysed at 24 hour and 48 hour timepoints, using Muse Annexin V & Dead Cell Assay kit and Muse Cell Analyser. Early apoptosis cells (identified as Annexin V-PE positive and Dead Cell Marker negative) were measured and plotted.
# PLC/PRF/5 cells = test: Apoptosis (AnnexinV) profile of PLC/PRF/5 cells; type: cell-based; conditions: 48 hour culture, increasing concentration
# Method: as §1
# [2] = system: HCC01-0708 HER2/HER3 co-expressing PDX model of HCC; test: HCC patient-derived xenograft model HCC01-0708, tumour volume; type: in vivo; conditions: HCC01-0708 PDX; 25, 50 or 100 mg/kg BID
# [3] = system: HCC29-0909A HCC patient-derived xenograft (co-expression of HER1, HER2 and HER3); test: HCC patient-derived xenograft model HCC29-0909A in SCID mice, tumour volume; type: in vivo; conditions: HCC29-0909A PDX in SCID mice
# Method: A HCC patient-derived xenograft model in SCID mice (HCC29-0909A) with co-expression of HER1, HER2 and HER3 receptors [Cancer Res Aug. […] Dosing with varlitinib commenced when the tumours reached the size of approximately 100-150 mm^3. Bi-dimensional measurements are performed twice a week and tumour volumes are calculated based on the following formula: Tumour volume=[(Length)×(Width^2)×(p/6)].
# Groups of mice were dosed as follows:
# Group 1 control group received vehicle only
# Group 2 received 25 mg/Kg of ASLAN001 BID (twice daily),
# Group 3 received 50 mg/Kg of ASLAN001 BID (twice daily), and
# Group 4 received 100 mg/Kg of ASLAN001 BID (twice daily).
# Huh7-SorR cells = test: Early apoptosis in sorafenib resistant cells (Muse Annexin V & Dead Cell Assay); type: cell-based; conditions: high dose of varlitinib
# Method: as §1
structure (smiles),measurement,setting,value
"C[C@@H]1COC(Nc2ccc3ncnc(Nc4ccc(OCc5nccs5)c(Cl)c4)c3c2)=N1 [varlitinib, (R)-N4-[3-Chloro-4-(thiazol-2-ylmethoxy)-phenyl]-N6-(4-methyl-4,5,-dihydro-oxazol-2-yl)-quinazoline-4,6-diamine]","phosphorylation of HER1-3, RAS/RAF/MEK/MAPK, p70S6K, S6 ribosomal, 4EBP1, Cdc-2 and retinoblastoma",[1],strongly inhibited
same,inhibition of the MAPK pathway,MAPK pathway,robust inhibition
same,"induction of early apoptosis (Annexin V-PE positive, Dead Cell Marker negative)",HCC cell lines,able to induce early apoptosis
same,percentage of apoptotic cells,PLC/PRF/5 cells,increase in percentage of apoptotic cells correlates with increasing varlitinib concentration
same,tumour growth inhibition (tumour volume),[2],inhibited tumour growth; also recorded: dose-dependent tumour volume growth inhibition
same,tumor regression,[3]; 100 mg/kg BID,complete tumor regression
same,tumour growth inhibition (tumour volume),"[3]; 25, 50 or 100 mg/kg BID",potently inhibited tumour growth; also recorded: dose-dependent tumour volume growth inhibition
same,early apoptosis,Huh7-SorR cells,~70%
